Broadly, the IC50 is the point on the concentration scale where inhibition reaches its midpoint.

The text below walks through data of patent publication US10112941B2, “Tricyclic compounds as anticancer agents” (BRISTOL-MYERS SQUIBB COMPANY, priority 2013, dated 2018).

The target in this assay is BRD4 (Homo sapiens, UniProt O60885). Briefly: Time Resolved Fluorescence Resonance Energy Transfer (TR-FRET) binding assay, BRD4. As to conditions: one of the FRET assays described; read-out: FRET BRD4 IC50. On the technique in general: TR-FRET usually uses a lanthanide donor and a delayed reading to cut background.
As to `Cc1nnn(C)c1-c1cnc2c3c(F)cc(C(C)(C)O)cc3n(C(c3c(F)cc(F)cc3F)C3CCOCC3)c2c1` (single isomer, unassigned) [Example 105, 2-[3-(Dimethyl-1H-1,2,3-triazol-5-yl)-9-fluoro-5-[oxan-4-yl(2,4,6-trifluorophenyl)methyl]-5H-pyrido[3,2-b]indol-7-yl]propan-2-ol], the IC50 was less than 5 nM. Then `Cc1nnn(C)c1-c1cnc2c3c(F)cc(C(C)(C)O)cc3n(C(c3cc(F)ccc3F)C3CCOCC3)c2c1` (single isomer, unassigned) [Example 106, 2-{5-[(2,5-Difluorophenyl)(oxan-4-yl)methyl]-3-(dimethyl-1H-1,2,3-triazol-5-yl)-9-fluoro-5H-pyrido[3,2-b]indol-7-yl}propan-2-ol], with less than 5 nM; and `Cc1nnn(C)c1-c1cnc2c3c(F)cc(C(C)(C)O)cc3n(C(c3cc(F)ccc3F)C3CCOCC3)c2c1` (single isomer, unassigned) [Example 107, 2-{5-[(2,5-Difluorophenyl)(oxan-4-yl)methyl]-3-(dimethyl-1H-1,2,3-triazol-5-yl)-9-fluoro-5H-pyrido[3,2-b]indol-7-yl}propan-2-ol], with less than 5 nM. Turning to `Cc1nnn(C)c1-c1cnc2c3c(F)cc(C(C)(C)O)cc3n(C(c3cccc(F)c3F)C3CCOCC3)c2c1` (single isomer, unassigned) [Example 108, 2-{5-[(2,3-Difluorophenyl)(oxan-4-yl)methyl]-3-(dimethyl-1H-1,2,3-triazol-5-yl)-9-fluoro-5H-pyrido[3,2-b]indol-7-yl}propan-2-ol], the IC50 is less than 5 nM. Then `Cc1nnn(C)c1-c1cnc2c3c(F)cc(C(C)(C)O)cc3n(C(c3cccc(F)c3F)C3CCOCC3)c2c1` (single isomer, unassigned) [Example 109, 2-{5-[(2,3-Difluorophenyl)(oxan-4-yl)methyl]-3-(dimethyl-1H-1,2,3-triazol-5-yl)-9-fluoro-5H-pyrido[3,2-b]indol-7-yl}propan-2-ol], with less than 5 nM; and `Cc1nnn(C)c1-c1cnc2c3c(F)cc(C(C)(C)O)cc3n(C(c3ccc(F)cc3F)C3CCOCC3)c2c1` (single isomer, unassigned) [Example 110, 2-{5-[(2,4-Difluorophenyl)(oxan-4-yl)methyl]-3-(dimethyl-1H-1,2,3-triazol-5-yl)-9-fluoro-5H-pyrido[3,2-b]indol-7-yl}propan-2-ol], with less than 5 nM. The result for `Cc1nnn(C)c1-c1cnc2c3c(F)cc(C(C)(C)O)cc3n(C(c3ccc(F)cc3F)C3CCOCC3)c2c1` (single isomer, unassigned) [Example 111, 2-{5-[(2,4-Difluorophenyl)(oxan-4-yl)methyl]-3-(dimethyl-1H-1,2,3-triazol-5-yl)-9-fluoro-5H-pyrido[3,2-b]indol-7-yl}propan-2-ol] reads less than 5 nM. Then `Cc1nnn(C)c1-c1cnc2c3c(F)cc(C(C)(C)O)cc3n(C(c3cccc(F)c3)C3CCOCC3)c2c1` (single isomer, unassigned) [Example 112, 2-[3-(Dimethyl-1H-1,2,3-triazol-5-yl)-9-fluoro-5-[(3-fluorophenyl)(oxan-4-yl)methyl]-5H-pyrido[3,2-b]indol-7-yl]propan-2-ol], with less than 5 nM. For `Cc1nnn(C)c1-c1cnc2c3c(F)cc(C(C)(C)O)cc3n(C(c3cccc(F)c3)C3CCOCC3)c2c1` (single isomer, unassigned) [Example 113, 2-[3-(Dimethyl-1H-1,2,3-triazol-5-yl)-9-fluoro-5-[(3-fluorophenyl)(oxan-4-yl)methyl]-5H-pyrido[3,2-b]indol-7-yl]propan-2-ol], the half-maximal inhibitory concentration (IC50) was less than 1500 nM. Then `Cc1nnn(C)c1-c1cnc2c3c(S(C)(=O)=O)cccc3n(C(c3ccccc3F)C3CCOCC3)c2c1` (single isomer, unassigned) [Example 115, 5-{5-[(2-Fluorophenyl)(oxan-4-yl)methyl]-9-methanesulfonyl-5H-pyrido[3,2-b]indol-3-yl}-1,4-dimethyl-1H-1,2,3-triazole], with less than 5 nM. The result for `Cc1nnn(C)c1-c1cnc2c3c(S(C)(=O)=O)cccc3n(C(c3ccccc3F)C3CCOCC3)c2c1` (single isomer, unassigned) [Example 116, 5-{5-[(2-Fluorophenyl)(oxan-4-yl)methyl]-9-methanesulfonyl-5H-pyrido[3,2-b]indol-3-yl}-1,4-dimethyl-1H-1,2,3-triazole] reads less than 25 nM; that for `Cc1nnn(C)c1-c1cnc2c3c(S(C)(=O)=O)cccc3n(C(c3c(F)cc(F)cc3F)C3CCOCC3)c2c1` (single isomer, unassigned) [Example 117, 5-{9-Methanesulfonyl-5-[oxan-4-yl(2,4,6-trifluorophenyl)methyl]-5H-pyrido[3,2-b]indol-3-yl}-1,4-dimethyl-1H-1,2,3-triazole], less than 5 nM; that for `Cc1nnn(C)c1-c1cnc2c3c(S(C)(=O)=O)cccc3n(C(c3c(F)cc(F)cc3F)C3CCOCC3)c2c1` (single isomer, unassigned) [Example 118, 5-{9-Methanesulfonyl-5-[oxan-4-yl(2,4,6-trifluorophenyl)methyl]-5H-pyrido[3,2-b]indol-3-yl}-1,4-dimethyl-1H-1,2,3-triazole], less than 5 nM. Then `COc1ccc(C(C2CCOCC2)n2c3cc(C(C)(C)O)ccc3c3ncc(-c4c(C)nnn4C)cc32)c(F)c1` (single isomer, unassigned) [Example 119, 2-[3-(Dimethyl-1H-1,2,3-triazol-5-yl)-5-[(2-fluoro-4-methoxyphenyl)(oxan-4-yl)methyl]-5H-pyrido[3,2-b]indol-7-yl]propan-2-ol], with less than 5 nM; and `COc1ccc(C(C2CCOCC2)n2c3cc(C(C)(C)O)ccc3c3ncc(-c4c(C)nnn4C)cc32)c(F)c1` (single isomer, unassigned) [Example 120, 2-[3-(Dimethyl-1H-1,2,3-triazol-5-yl)-5-[(2-fluoro-4-methoxyphenyl)(oxan-4-yl)methyl]-5H-pyrido[3,2-b]indol-7-yl]propan-2-ol], with less than 5 nM; and `COc1ccc(C(C2CCOCC2)n2c3cc(C(C)(C)O)ccc3c3ncc(-c4c(C)nnn4C)cc32)c(F)c1F` (single isomer, unassigned) [Example 121, 2-{5-[(2,3-Difluoro-4-methoxyphenyl)(oxan-4-yl)methyl]-3-(dimethyl-1H-1,2,3-triazol-5-yl)-5H-pyrido[3,2-b]indol-7-yl}propan-2-ol], with less than 25 nM. On to `COc1ccc(C(C2CCOCC2)n2c3cc(C(C)(C)O)ccc3c3ncc(-c4c(C)nnn4C)cc32)c(F)c1F` (single isomer, unassigned) [Example 122, 2-{5-[(2,3-Difluoro-4-methoxyphenyl)(oxan-4-yl)methyl]-3-(dimethyl-1H-1,2,3-triazol-5-yl)-5H-pyrido[3,2-b]indol-7-yl}propan-2-ol], for which the IC50 is less than 5 nM. In the case of `COc1cc(F)c(C(C2CCOCC2)n2c3cc(C(C)(C)O)ccc3c3ncc(-c4c(C)nnn4C)cc32)cc1F` (single isomer, unassigned) [Example 123, 2-{5-[(2,5-Difluoro-4-methoxyphenyl)(oxan-4-yl)methyl]-3-(dimethyl-1H-1,2,3-triazol-5-yl)-5H-pyrido[3,2-b]indol-7-yl}propan-2-ol], the 50% inhibitory concentration (IC50) is less than 5 nM. With `COc1cc(F)c(C(C2CCOCC2)n2c3cc(C(C)(C)O)ccc3c3ncc(-c4c(C)nnn4C)cc32)cc1F` (single isomer, unassigned) [Example 124, 2-{5-[(2,5-Difluoro-4-methoxyphenyl)(oxan-4-yl)methyl]-3-(dimethyl-1H-1,2,3-triazol-5-yl)-5H-pyrido[3,2-b]indol-7-yl}propan-2-ol], the IC50 was less than 5 nM. As for `Cc1noc(C)c1-c1cnc2c3ccc(C(C)(C)O)cc3n(C(c3ccc(F)cc3F)C3CCOCC3)c2c1` (single isomer, unassigned) [Example 125, 2-{5-[(2,4-Difluorophenyl)(oxan-4-yl)methyl]-3-(dimethyl-1,2-oxazol-4-yl)-5H-pyrido[3,2-b]indol-7-yl}propan-2-ol], the IC50 is less than 5 nM. The result for `Cc1noc(C)c1-c1cnc2c3ccc(C(C)(C)O)cc3n(C(c3ccc(F)cc3F)C3CCOCC3)c2c1` (single isomer, unassigned) [Example 126, 2-{5-[(2,4-Difluorophenyl)(oxan-4-yl)methyl]-3-(dimethyl-1,2-oxazol-4-yl)-5H-pyrido[3,2-b]indol-7-yl}propan-2-ol] reads less than 25 nM; that for `Cc1noc(C)c1-c1cnc2c3ccc(C(C)(C)O)cc3n(C(c3c(F)cc(F)cc3F)C3CCOCC3)c2c1` (single isomer, unassigned) [Example 127, 2-[3-(Dimethyl-1,2-oxazol-4-yl)-5-[oxan-4-yl(2,4,6-trifluorophenyl)methyl]-5H-pyrido[3,2-b]indol-7-yl]propan-2-ol], less than 5 nM; that for `Cc1noc(C)c1-c1cnc2c3ccc(C(C)(C)O)cc3n(C(c3c(F)cc(F)cc3F)C3CCOCC3)c2c1` (single isomer, unassigned) [Example 128, 2-[3-(Dimethyl-1,2-oxazol-4-yl)-5-[oxan-4-yl(2,4,6-trifluorophenyl)methyl]-5H-pyrido[3,2-b]indol-7-yl]propan-2-ol], less than 25 nM.

On to `Cc1noc(C)c1-c1cnc2c3ccc(C(C)(C)O)cc3n(C(c3cc(F)cc(F)c3)C3CCOCC3)c2c1` (single isomer, unassigned) [Example 129, 2-{5-[(3,5-Difluorophenyl)(oxan-4-yl)methyl]-3-(dimethyl-1,2-oxazol-4-yl)-5H-pyrido[3,2-b]indol-7-yl}propan-2-ol], for which the IC50 was less than 1500 nM.

`Cc1noc(C)c1-c1cnc2c3ccc(C(C)(C)O)cc3n(C(c3cc(F)cc(F)c3)C3CCOCC3)c2c1` (single isomer, unassigned) [Example 130, 2-{5-[(3,5-Difluorophenyl)(oxan-4-yl)methyl]-3-(dimethyl-1,2-oxazol-4-yl)-5H-pyrido[3,2-b]indol-7-yl}propan-2-ol]: the IC50 is less than 5 nM. The result for `Cc1nnn(C)c1-c1cnc2c3ccc(C(C)(C)O)cc3n(C(c3cc(F)ccc3F)C3CCOCC3)c2c1` (single isomer, unassigned) [Example 131, 2-{5-[(2,5-Difluorophenyl)(oxan-4-yl)methyl]-3-(dimethyl-1H-1,2,3-triazol-5-yl)-5H-pyrido[3,2-b]indol-7-yl}propan-2-ol] reads less than 5 nM.
